In ChEMBL document CHEMBL4007425, “Drug Repurposing of Histone Deacetylase Inhibitors That Alleviate Neutrophilic Inflammation in Acute Lung Injury and Idiopathic Pulmonary Fibrosis via Inhibiting Leukotriene A4 Hydrolase and Blocking LTB4 Biosynthesis” (J Med Chem, 2017):
pIC50: −log10 of the molar value. The source made the active and inactive calls. The calls are words filed in the database; no cut-off is given here.

What was measured:
[1] = target: T1, Leukotriene A-4 hydrolase (Homo sapiens, UniProt P09960); experiment: Inhibition of recombinant human LTA4H aminopeptidase activity expressed in Escherichia coli BL21 (DE3) pLysS assessed as formation of p-NA from Ala-p-NA preincubated for 10 mins followed by substrate addition measured after 10 mins; assay type: ADME
T1 sequence (P09960 whole entry): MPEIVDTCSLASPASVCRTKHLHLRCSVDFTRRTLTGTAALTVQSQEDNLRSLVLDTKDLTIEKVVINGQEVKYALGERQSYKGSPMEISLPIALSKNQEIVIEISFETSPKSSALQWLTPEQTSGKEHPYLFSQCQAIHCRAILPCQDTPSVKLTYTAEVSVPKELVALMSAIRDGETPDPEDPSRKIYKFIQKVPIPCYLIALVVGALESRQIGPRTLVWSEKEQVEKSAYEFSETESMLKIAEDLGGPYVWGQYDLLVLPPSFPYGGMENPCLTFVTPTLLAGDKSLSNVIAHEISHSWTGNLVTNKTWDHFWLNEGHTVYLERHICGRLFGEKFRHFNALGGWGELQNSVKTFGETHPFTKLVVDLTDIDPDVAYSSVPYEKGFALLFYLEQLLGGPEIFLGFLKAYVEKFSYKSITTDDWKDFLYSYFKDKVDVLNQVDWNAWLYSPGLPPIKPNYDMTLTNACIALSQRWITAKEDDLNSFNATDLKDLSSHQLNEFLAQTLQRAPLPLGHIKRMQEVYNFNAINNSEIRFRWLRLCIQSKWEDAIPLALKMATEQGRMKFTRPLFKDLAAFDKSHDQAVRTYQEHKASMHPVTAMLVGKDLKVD

[2] = target: T1, Leukotriene A-4 hydrolase; experiment: Inhibition of recombinant human LTA4H Epoxide Hydrolase expressed in Escherichia coli BL21 (DE3) pLysS preincubated for 10 mins followed by addition of LTA4 as substrate measured after 15 mins by reverse-phase HPLC analysis
[3] = target: T2, Leukotriene A-4 hydrolase (LTA4H) aminopeptidase activity (Homo sapiens, UniProt P09960); experiment: Inhibition of recombinant human LTA4H aminopeptidase activity expressed in Escherichia coli BL21 (DE3) pLysS assessed as formation of p-NA from Ala-p-NA at 10 uM preincubated for 10 mins followed by substrate addition measured after 10 mins
T2 sequence (P09960 whole entry): T1 sequence (P09960 whole entry)

[4] = target: T3, Leukotriene A-4 hydrolase (Homo sapiens) (UniProt P09960)
T3 sequence (whole entry): T1 sequence (P09960 whole entry)
Description: Binding affinity to recombinant human LTA4H hydrolase assessed as change in melting temperature at 50 uM by SYPRO orange dye-based thermofluor assay

[5] = target: T3, Leukotriene A-4 hydrolase (Homo sapiens); conditions: at 10 µM
Description: Inhibition of recombinant human LTA4H Epoxide Hydrolase expressed in Escherichia coli BL21 (DE3) pLysS at 10 uM preincubated for 10 mins followed by addition of LTA4 as substrate measured after 15 mins by reverse-phase HPLC analysis

[6] = test system: Mus musculus; experiment: Anti-inflammatory activity in LPS-induced C57BL/6 mouse model of acute lung injury assessed as reduction in pathological changes at 25 mg/kg, ip and co-treated with ((2S,3R)-3-amino-2-hydroxy-4-phenylbutanamido)-4-methylpentanoic acid pretreated for 1 hr followed LPS challenge measured after 24 hrs by hematoxylin and eosin staining based microscopy; assay type: functional, organism-based
[7] = species: Mus musculus; conditions: C57BL/6, at 25 mg/kg
Description: Inhibition of LTB4 biosynthesis in LPS-induced C57BL/6 mouse model of acute lung injury BLAF at 25 mg/kg, ip by ELISA

[8] = target: T3, Leukotriene A-4 hydrolase (Homo sapiens); conditions: 10 uM
[9] = test system: Mus musculus; experiment: Anti-inflammatory activity in BLM-induced C57BL/6 mouse model of acute lung neutrophilic inflammation assessed as reduction in number of neutrophils in BALF at 30 mg/kg, ip qd for 7 days post BLM challenge measured on day 7; assay type: functional, organism-based

For O=C(CCCCCN1C(=O)c2cccc3cccc(c23)C1=O)NO, the pIC50 [1] was 5.36, the pIC50 [2] was less than 5.00 and the inhibition at 10 min, 10 µM [3] was greater than 50%. For the same compound, the ΔTm [4] was -0.68 °C and the inhibition [5] was greater than 50%.

For CC(C)C[C@H](NC(=O)[C@@H](O)[C@H](N)Cc1ccccc1)C(=O)O, the Activity [6] was “Active” and the inhibition [7] was “Active”.

Compound CN(CCCOc1ccc(Cc2ccccc2)cc1)CCC(=O)O has a ΔTm [8] of 2.95 °C.

COC(=O)c1ccc2c(c1)NC(=O)/C2=C(\Nc1ccc(N(C)C(=O)CN2CCN(C)CC2)cc1)c1ccccc1 was tested, and the Activity [9] was “Active”.

With CN(C)Cc1c(C(=O)NCCOc2ccc(C(=O)NO)cc2)oc2ccccc12 [ABEXINOSTAT] the pIC50 [1] was less than 5.00, the pIC50 [2] was less than 5.00 and the inhibition at 10 min, 10 µM ([3]; probe Ala-p-NA) was greater than 50%. It also gave a ΔTm [4] of 0.24 °C and an inhibition [5] greater than 50%.

Work on O=C(/C=C/c1cccc(S(=O)(=O)Nc2ccccc2)c1)NO [BELINOSTAT] yielded a pIC50 [1] of less than 5.00, a pIC50 [2] of less than 5.00 and an inhibition at 10 min, 10 µM ([3]; probe Ala-p-NA) greater than 50%. For the same compound, the ΔTm [4] was 0.11 °C and the inhibition [5] was greater than 50%.

C#Cc1cccc(Nc2ncnc3cc(OC)c(OCCCCCCC(=O)NO)cc23)c1 [CUDC-101] was tested, and the pIC50 [1] was less than 5.00, the pIC50 [2] was less than 5.00 and the inhibition at 10 min, 10 µM [3] was greater than 50%. For the same compound, the ΔTm [4] was 0.3 °C and the inhibition [5] was greater than 50%.

Nc1ccccc1NC(=O)c1ccc(CNC(=O)OCc2cccnc2)cc1 [ENTINOSTAT] showed a pIC50 [1] of less than 5.00, a pIC50 [2] of less than 5.00 and an inhibition at 10 min, 10 µM ([3]; probe Ala-p-NA) greater than 50%. For the same compound, the ΔTm [4] was 0.39 °C and the inhibition [5] was greater than 50%.

With CCN(CC)Cc1ccc2cc(COC(=O)Nc3ccc(C(=O)NO)cc3)ccc2c1 [GIVINOSTAT] the pIC50 [1] was less than 5.00, the pIC50 [2] was less than 5.00 and the inhibition at 10 min, 10 µM ([3]; probe Ala-p-NA) was greater than 50%. The ΔTm [4] was 0.19 °C and the inhibition [5] was greater than 50%.

In the case of Nc1ccccc1NC(=O)c1ccc(CNc2nccc(-c3cccnc3)n2)cc1 [MOCETINOSTAT], the pIC50 [1] was less than 5.00, the pIC50 [2] was less than 5.00 and the inhibition at 10 min, 10 µM ([3]; probe Ala-p-NA) was greater than 50%. For the same compound, the ΔTm [4] was -0.33 °C and the inhibition [5] was greater than 50%.

Cc1[nH]c2ccccc2c1CCNCc1ccc(/C=C/C(=O)NO)cc1 [PANOBINOSTAT] was tested, and the pIC50 [1] was less than 5.00, the pIC50 [2] was less than 5.00 and the inhibition at 10 min, 10 µM ([3]; probe Ala-p-NA) was greater than 50%. For the same compound, the ΔTm [4] was 0.12 °C and the inhibition [5] was greater than 50%.

Work on CCCCc1nc2cc(/C=C/C(=O)NO)ccc2n1CCN(CC)CC [PRACINOSTAT] yielded a pIC50 [1] of less than 5.00, a pIC50 [2] of less than 5.00 and an inhibition at 10 min, 10 µM [3] greater than 50%. For the same compound, the ΔTm [4] was 0.31 °C and the inhibition [5] was greater than 50%.

Cn1cc(CNCC2CCN(c3ncc(C(=O)NO)cn3)CC2)c2ccccc21 [QUISINOSTAT] showed a pIC50 [1] of less than 5.00, a pIC50 [2] of less than 5.00 and an inhibition at 10 min, 10 µM ([3]; probe Ala-p-NA) greater than 50%. The ΔTm [4] was 0.52 °C and the inhibition [5] was greater than 50%.

CN(C)Cc1ccc(S(=O)(=O)n2ccc(/C=C/C(=O)NO)c2)cc1 [RESMINOSTAT] showed a pIC50 [1] of less than 5.00, a pIC50 [2] of less than 5.00 and an inhibition at 10 min, 10 µM ([3]; probe Ala-p-NA) greater than 50%. It also gave a ΔTm [4] of 0.44 °C and an inhibition [5] greater than 50%.

Work on O=C(CCCCCCNC(=O)c1cnc(N(c2ccccc2)c2ccccc2)nc1)NO [RICOLINOSTAT] yielded a pIC50 [1] of less than 5.00, a pIC50 [2] of less than 5.00 and an inhibition at 10 min, 10 µM ([3]; probe Ala-p-NA) greater than 50%. The ΔTm [4] was 0.55 °C and the inhibition [5] was greater than 50%.

Work on CC(/C=C/C(=O)NO)=C\[C@@H](C)C(=O)c1ccc(N(C)C)cc1 [TRICHOSTATIN] yielded a pIC50 [1] of less than 5.00, a pIC50 [2] of less than 5.00 and an inhibition at 10 min, 10 µM ([3]; probe Ala-p-NA) greater than 50%. The ΔTm [4] was 0.17 °C and the inhibition [5] was greater than 50%.

O=C(CCCCCCC(=O)Nc1ccc([C@H]2O[C@@H](CSc3nc(-c4ccccc4)c(-c4ccccc4)o3)C[C@@H](c3ccc(CO)cc3)O2)cc1)NO [TUBACIN] showed a pIC50 [1] of less than 5.00, a pIC50 [2] of less than 5.00 and an inhibition at 10 min, 10 µM ([3]; probe Ala-p-NA) greater than 50%. It also gave a ΔTm [4] of 0.34 °C and an inhibition [5] greater than 50%.

Compound CCCC(CCC)C(=O)O [VALPROATE SODIUM] has a pIC50 [1] of less than 5.00, a pIC50 [2] of less than 5.00 and an inhibition at 10 min, 10 µM ([3]; probe Ala-p-NA) greater than 50%. It also gave a ΔTm [4] of 0.36 °C and an inhibition [5] greater than 50%.
